According to ChEMBL document CHEMBL1641404 (Bioorg Med Chem Lett, 2011):

Experiments:
Assay type in all cases: ADME, organism-based
[1] = Tmax in Sprague-Dawley rat 5 mg/kg, po; parameters: dose 5 mg/kg, route oral; details: in vivo
[2] = AUC (0 to t) in Sprague-Dawley rat 1 mg/kg, iv; parameters: dose 1 mg/kg, route intravenous; details: plasma
[3] = Tmax in CD-1 mouse 10 mg/kg, po; parameters: dose 10 mg/kg, route oral; details: in vivo
[4] = Oral bioavailability in CD-1 mouse 10 mg/kg; details: in vivo
[5] = Volume of distribution in Sprague-Dawley rat 1 mg/kg, iv; parameters: dose 1 mg/kg, route intravenous; details: in vivo
[6] = AUC (0 to t) in CD-1 mouse 1 mg/kg, iv; parameters: dose 1 mg/kg, route intravenous; details: plasma
Mus musculus = experiment: Cmax in CD-1 mouse 10 mg/kg, po; parameters: dose 10 mg/kg, route oral; details: in vivo
[7] = Half life in CD-1 mouse 1 mg/kg, iv; parameters: dose 1 mg/kg, route intravenous; details: in vivo
[8] = AUC (0 to t) in CD-1 mouse 10 mg/kg, po; parameters: dose 10 mg/kg, route oral; details: plasma
Rattus norvegicus = experiment: Cmax in Sprague-Dawley rat 5 mg/kg, po; parameters: dose 5 mg/kg, route oral; details: in vivo
[9] = Half life in Sprague-Dawley rat 1 mg/kg, iv; parameters: dose 1 mg/kg, route intravenous; details: in vivo
[10] = Oral bioavailability in Sprague-Dawley rat 5 mg/kg; details: in vivo
[11] = Clearance in Sprague-Dawley rat 1 mg/kg, iv; parameters: dose 1 mg/kg, route intravenous; details: in vivo
[12] = Plasma concentration in mouse bearing ALK-positive tumor xenografts at 30 mg/kg, po up to 12 hrs; parameters: dose 30 mg/kg, route oral
[13] = AUC (0 to t) in Sprague-Dawley rat 5 mg/kg, po; parameters: dose 5 mg/kg, route oral; details: plasma
[14] = Volume of distribution in CD-1 mouse 1 mg/kg, iv; parameters: dose 1 mg/kg, route intravenous; details: in vivo
[15] = Half life in CD-1 mouse 10 mg/kg, po; parameters: dose 10 mg/kg, route oral; details: in vivo
[16] = Clearance in CD-1 mouse 1 mg/kg, iv; parameters: dose 1 mg/kg, route intravenous; details: in vivo

- Tmax [1]: 198 min
- AUC(0-t) [2]: 1020 ng·h/mL
- Tmax [3]: 30 min
- bioavailability [4]: 64%
- Vd [5]: 1.1 L/kg
- AUC(0-t) [6]: 830 ng·h/mL
- Cmax (Mus musculus): 1190 ng/mL
- half-life [7]: 42 min
- AUC(0-t) [8]: 3900 ng·h/mL
- Cmax (Rattus norvegicus): 306 ng/mL
- half-life [9]: 48 min
- bioavailability [10]: 30%
- clearance [11]: 16 mL/min/kg
- concentration at 12 h [12]: 3000 nM
- AUC(0-t) [13]: 1400 ng·h/mL
- Vd [14]: 1.2 L/kg
- half-life [15]: 186 min
- clearance [16]: 20 mL/min/kg
Compound: COc1cc2c(cc1Nc1ncc(Cl)c(Nc3ccc(N4CCOCC4)cc3OC)n1)CCN(CC(=O)N(C)C)CC2
